Results published in US10537102B2, “Synergistic fungicidal composition for controlling plant diseases” (Sumitomo Chemical Company, Limited, priority 2016, dated 2020).

Legend:
[1] = system: Brown rust (Puccinia recondita); experiment: Test Example 4: foliar spray on wheat, Brown rust lesion area; assay type: in vivo, Puccinia recondita on wheat (cultivar. Shirogane); conditions: single use, flowable, foliar spray one day before inoculation
Method: Five (5) parts of the present compound 1-3, 35 parts of a mixture of white carbon and ammonium polyoxyethylene alkyl ether sulfate (the weight ratio of 1:1) and […] of water were mixed, and the mixture was then finely-ground by a wet grinding method to obtain a flowable comprising the present compound 1-3. Separately, the flowable comprising the present compound 2 was prepared according to the above-mentioned similar method except that the […].
Each of the flowable comprising the present compound 1-3 and the flowable comprising the present compound 2 was diluted with water and if necessary, the resultant dilute solutions were mixed each other such that each concentration of the respective compounds in the dilution solution was adjusted to the concentration indicated in Table 4, to prepare the dilution solutions, respectively.
A plastic pot was filled with soil, and thereto wheat (cultivar. Shirogane) was seeded, and the plants were grown in a greenhouse for ten days. The above-mentioned dilution solutions were sprayed to foliar parts so as to adhere adequately onto the surfaces of leaves of the above wheats. After spraying the dilute solution, the plants were air-dried, and one day after the application, an aqueous suspension of uredospores of Brown rust (Puccinia recondita) was inoculated by spraying thereto. After the inoculation, the plants were placed at 27° C. under humid condition for one day, and were then cultivated under lighting for ten days, and a lesion area was examined (hereinafter referred to as “lesion area of treated group”).
Whereas, wheats were cultivated similarly to the treated group except that no foliage application of the above-mentioned agent solution was done, and Brown rust were inoculated, and the lesion area thereof was examined (hereinafter referred to as “lesion area of the untreated group”).
From each of the lesion area of the treated group and the untreated group, respectively, the efficacy of the treated group was calculated by the following Equation 2.
Efficacy (%)=[1−(lesion area of the treated group)/(lesion area of the untreated group)]×100 Equation 2

[2] = system: Septoria leaf blotch (Mycosphaerella graminicola); experiment: Test Example 3: growth of Septoria leaf blotch in YBG medium, microtiter plate, absorbance at 550 nm; assay type: cell-based; conditions: single use, 18° C., four days
Method: Each of the present compound 1-3 or the present compound 2 was dissolved into dimethyl sulfoxide such that each concentration of these compounds was adjusted to one hundred fifty times as much as the concentration indicated in the below-mentioned Table 3. The resultant agent solution was dispensed into each microtiter plate (with 96 wells) in 1 μl portion thereof per well. 149 μl of YBG medium to which conidia of Septoria leaf blotch (Mycosphaerella graminicola) was inoculated in advance (which was prepared by dissolving 10 g of yeast extract, 10 g of Bacto Peptone, and 20 mL of glycerol into 1 L of water, followed by sterilizing the medium) was dispensed into each of the well to which the agent solution was dispensed. The plate was cultivated at 18° C. for four days, thereby allowing Septoria leaf blotch (Mycosphaerella graminicola) to undergo proliferation, and the absorbance at 550 nm of each well of the microtiter plate was then measured to examine a degree of growth of Septoria leaf blotch (hereinafter referred to as “treated group”).
Whereas, Septoria leaf blotch was proliferated similarly to the case of the treated group except that dimethyl sulfoxide was used instead of the agent solution, and the degree of the growth was examined (hereinafter referred to as “untreated group”). The efficacy was calculated from each of the obtained degree of growth of the treated group and the untreated group respectively by the following “Equation 1”.
Efficacy (%)=100×(X−Y)/X Equation 1
X: Degree of growth of fungus in the untreated group
Y: Degree of growth of fungus in the treated group

SMILES	Efficacy (%) ([1]; concentration in agent solution 0.002 ppm)	Efficacy (%) ([1]; concentration in agent solution 0.01 ppm)	Efficacy (%) ([2]; concentration in medium 0.0001 ppm)	Efficacy (%) ([2]; concentration in medium 0.01 ppm)	Efficacy (%) ([1]; concentration in agent solution 0.001 ppm)	Efficacy (%) ([1]; concentration in agent solution 0.02 ppm)	Efficacy (%) ([2]; concentration in medium 0.001 ppm)
Cc1cccc(-n2nnn(C)c2=O)c1COc1ccn(-c2ccc(Cl)cc2)n1 [Present compound 1-3, 1-(2-{[1-(4-chlorophenyl)-1H-pyrazol-3-yl]oxymethyl}-3-methylphenyl)-4-methyl-1,4-dihydrotetrazol-5-one]	35	70	20	37			
CC1CC(C)(C)c2c(F)ccc(NC(=O)c3cn(C)nc3C(F)F)c21 (stereo not shown) [Present compound 2]					15	55	20
